From ChEMBL document CHEMBL1914428, “Investigating the role of the hydroxyl groups of substrate erythrose 4-phosphate in the reaction catalysed by the first enzyme of the shikimate pathway” (Bioorg Med Chem Lett, 2011) come the findings set out here.

Assay [1] has as its system Escherichia coli. Put plainly: Ratio of Kcat to Km of Escherichia coli phenylalanine-sensitive DAH7P synthase type 1alpha.
For assay [2], the system named is Mycobacterium tuberculosis. Nature of the assay: Activity of Mycobacterium tuberculosis DAH7P synthase type 2 by spectrophotometry in the presence of Mn2+.
Assay [3] relates to Pyrococcus furiosus. Put plainly: Activity of Pyrococccus furiosus DAH7P synthase type 1beta by spectrophotometry in the presence of Mn2+.
The test system of assay [4] is Mycobacterium tuberculosis. Put plainly: Ratio of Kcat to Km of Mycobacterium tuberculosis DAH7P synthase type 2.
Assay [5] concerns Pyrococcus furiosus. Put plainly: Ratio of Kcat to Km of Pyrococccus furiosus DAH7P synthase type 1beta.
Assay [6] concerns Escherichia coli. Put plainly: Activity of Escherichia coli phenylalanine-sensitive DAH7P synthase type 1alpha by spectrophotometry in the presence of Mn2+.
For assay [7], the system named is Pyrococcus furiosus. Nature of the assay: Inhibition of Pyrococccus furiosus DAH7P synthase type 1beta.

Activity calls are given as the source filed them. The rule behind the calls is not given here.

For `O=C[C@H](O)[C@H](O)COP(=O)(O)O`, the kcat/Km (commonly the second-order rate constant that governs catalysis at low substrate concentration) in assay [1] was 670000 M⁻¹ s⁻¹; in assay [4], 150000 M⁻¹ s⁻¹; in assay [5], 160000 M⁻¹ s⁻¹. Besides, the Km – broadly, the concentration of substrate that gives half-maximal velocity – in assay [2] came to 37 µM; in assay [3] it was 9 µM; in assay [6], 39 µM. Moreover, the catalytic constant (kcat) (as a rule, the number of substrate molecules converted per active site and unit of time at saturation) amounted to 5.4 s⁻¹ in assay [2], 1.4 s⁻¹ in assay [3] and 26 s⁻¹ in assay [6].
For the molecule `O=CC[C@H](O)COP(=O)(O)O`, the values for the kcat/Km in assay [1], in assay [4] and in assay [5] were 60000 M⁻¹ s⁻¹, 110000 M⁻¹ s⁻¹ and 500000 M⁻¹ s⁻¹, respectively. In addition, the Km in assay [2] came out at 46 µM; in assay [3], 6 µM; in assay [6], 410 µM. The catalytic constant (kcat) in assay [2] amounted to 4.9 s⁻¹; in assay [3], 3 s⁻¹; in assay [6], 25 s⁻¹.
As to `O=CC(O)CCOP(=O)(O)O` (racemic), the inhibition entry in assay [7] was “Active”. For the same molecule, the Michaelis constant (Km) in assay [6] stood at 2600 µM.
Turning to `O=C[C@H](O)CCOP(=O)(O)O`, the figures for the kcat/Km in assay [1], in assay [4] and in assay [5] were 2000 M⁻¹ s⁻¹, 31000 M⁻¹ s⁻¹ and 11000 M⁻¹ s⁻¹, respectively. For the same molecule, the Km was determined as 77 µM in assay [2], 200 µM in assay [3] and 2700 µM in assay [6]. Besides, the values for the catalytic constant (kcat) in assay [2], in assay [3] and in assay [6] were 2.4 s⁻¹, 2.1 s⁻¹ and 4.5 s⁻¹, respectively.
